# Data from US20210371827A1, “METHOD FOR PREPARING CANCER STEM CELL SPHEROIDS” (KOREA ADVANCED INSTITUTE OF SCIENCE AND TECHNOLOGY, priority 2018, published 2021).
# Columns and labels:
# Test in all cases: Cell viability for doxorubicin (WST-1)
# Format in all cases: cell-based, human
# [1] = tested on: SKOV3-ssiCSC; conditions: various concentrations, 24 hours
# Description: (§1) ssiCSC spheroids prepared from different kinds of cancer cells (SKOV3, MCF-7, Hep3B and SW480) were isolated using trypsin (TrypLE Express, Gibco), and the isolated cells were washed with D-PBS twice. The ssiCSC was plated on a 96-well plate (1×10^4 cells/well) and was cultured in a cell growth medium at 37° C. for 24 hours. Then, the medium was removed, and a new medium comprising various concentrations of doxorubicin was added to each well and cultured for 24 hours. Next, each well was washed with D-PBS and was replaced with a new cell growth medium of 100 μl, and then WST-1 cell proliferation reagent (Roche) of 10 μl was added and cultured for 4 hours. Then, the absorbance at 450 nm (standard wavelength, 600 nm) was measured using a microplate reader (Molecular Devices).
# (§2) In addition, the drug resistance of ssiCSC for doxorubicin (DOX) known as an anticancer agent was confirmed. Specifically, ssiCSC spheroids prepared by culturing on the pV4D4 surface for 8 days were isolated to single cells, and the cell was cultured on the conventional TCP surface to a 2D single layer, and then DOX at various concentrations was treated for 24 hours. […] The SW480-ssiCSC maintained drug resistance when subcultured on the TCP surface twice, and through this, it can be seen that original cancer cells were transformed into CSC-like cells (FIG. 12c).
# [2] = tested on: ssiCSC (SKOV3, MCF-7, Hep3B and SW480); conditions: 50 μM, 24 hours; compared to the 2D control group
# Description: as §1, §2
# [3] = tested on: SW480-ssiCSC; conditions: various concentrations, 24 hours
# Description: as §1, §2
structure (smiles),measurement,setting,value
"COc1cccc2c1C(=O)c1c(O)c3c(c(O)c1C2=O)C[C@@](O)(C(=O)CO)C[C@@H]3O[C@H]1C[C@H](N)[C@H](O)[C@H](C)O1 [Dox, doxorubicin]",drug resistance (cell viability),[1],complete resistance
same,drug resistance (cell viability),[2],higher resistance
same,drug resistance (cell viability),[3],complete resistance
